Test results reported in publication PMC6199744, “Development of Chemical Proteomics for the Folateome and Analysis of the Kinetoplastid Folateome” (ACS Infectious Diseases, 2018).
Read-outs that look alike come from different tables or passages of the source.

How the values were obtained:
Format in all cases: binding
[1] = target: T1, HeLa cell extract proteins (Homo sapiens, UniProt P30740)
T1 construct: endogenous in cells; host or cells: HeLa cell extract
T1 sequence (P30740 1-379): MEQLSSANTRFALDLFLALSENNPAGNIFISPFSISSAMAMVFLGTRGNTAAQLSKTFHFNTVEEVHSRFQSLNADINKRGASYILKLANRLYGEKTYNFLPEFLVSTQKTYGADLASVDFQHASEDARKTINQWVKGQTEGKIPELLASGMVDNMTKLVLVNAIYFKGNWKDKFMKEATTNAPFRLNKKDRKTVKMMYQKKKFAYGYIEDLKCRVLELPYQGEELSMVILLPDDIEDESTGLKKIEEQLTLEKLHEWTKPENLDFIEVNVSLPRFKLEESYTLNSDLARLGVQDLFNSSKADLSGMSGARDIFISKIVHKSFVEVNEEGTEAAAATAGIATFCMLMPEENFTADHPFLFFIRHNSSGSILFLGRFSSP

[2] = target: T2, HeLa cell extract proteins (Homo sapiens, UniProt P0DMV8)
T2 construct: endogenous in cells; host or cells: HeLa cell extract

[3] = target: T3, HeLa cell extract proteins (Homo sapiens, UniProt P28074)
T3 construct: endogenous in cells; host or cells: HeLa cell extract
T3 sequence (P28074 60-263): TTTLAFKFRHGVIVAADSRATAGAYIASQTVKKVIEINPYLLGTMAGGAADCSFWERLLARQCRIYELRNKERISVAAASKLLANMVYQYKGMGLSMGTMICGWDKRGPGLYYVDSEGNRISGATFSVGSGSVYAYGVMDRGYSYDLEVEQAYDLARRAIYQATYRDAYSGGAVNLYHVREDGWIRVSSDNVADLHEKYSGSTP

[4] = target: T4, HeLa cell extract proteins (Homo sapiens, UniProt Q16637)
T4 construct: endogenous in cells; host or cells: HeLa cell extract

[5] = target: T5, HeLa cell extract proteins (Homo sapiens, UniProt Q96P70)
T5 construct: endogenous in cells; host or cells: HeLa cell extract

[6] = target: T6, HeLa cell extract proteins (Homo sapiens, UniProt Q15907)
T6 construct: endogenous in cells; host or cells: HeLa cell extract
T6 sequence (Q15907 1-218): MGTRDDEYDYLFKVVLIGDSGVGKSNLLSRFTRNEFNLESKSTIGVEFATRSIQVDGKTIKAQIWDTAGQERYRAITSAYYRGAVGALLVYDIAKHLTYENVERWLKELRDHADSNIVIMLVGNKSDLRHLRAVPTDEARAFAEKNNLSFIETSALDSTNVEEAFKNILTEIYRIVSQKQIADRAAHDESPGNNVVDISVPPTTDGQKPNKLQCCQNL

[7] = target: T7, HeLa cell extract proteins (Homo sapiens, UniProt Q3ZCQ8)
T7 construct: endogenous in cells; host or cells: HeLa cell extract

[8] = target: T8, HeLa cell extract proteins (Homo sapiens, UniProt P06703)
T8 construct: endogenous in cells; host or cells: HeLa cell extract

[9] = target: T9, HeLa cell extract proteins (Homo sapiens, UniProt Q15084)
T9 construct: endogenous in cells; host or cells: HeLa cell extract
T9 sequence (Q15084 20-440): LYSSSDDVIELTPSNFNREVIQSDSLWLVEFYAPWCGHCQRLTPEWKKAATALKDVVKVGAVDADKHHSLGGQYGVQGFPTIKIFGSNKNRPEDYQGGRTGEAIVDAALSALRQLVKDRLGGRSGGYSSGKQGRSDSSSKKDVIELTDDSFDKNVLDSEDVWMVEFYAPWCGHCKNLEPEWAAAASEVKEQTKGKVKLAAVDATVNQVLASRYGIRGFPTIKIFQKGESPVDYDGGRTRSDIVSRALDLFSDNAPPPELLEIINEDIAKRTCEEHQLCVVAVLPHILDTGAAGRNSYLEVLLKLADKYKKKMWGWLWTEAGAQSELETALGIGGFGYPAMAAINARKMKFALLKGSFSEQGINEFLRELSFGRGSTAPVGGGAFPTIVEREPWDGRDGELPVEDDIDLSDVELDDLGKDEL

[10] = target: T10, HeLa cell extract proteins (Homo sapiens, UniProt P35270)
T10 construct: endogenous in cells; host or cells: HeLa cell extract

[11] = target: T11, HeLa cell extract proteins (Homo sapiens, UniProt P50502)
T11 construct: endogenous in cells; host or cells: HeLa cell extract
T11 sequence (P50502 1-369): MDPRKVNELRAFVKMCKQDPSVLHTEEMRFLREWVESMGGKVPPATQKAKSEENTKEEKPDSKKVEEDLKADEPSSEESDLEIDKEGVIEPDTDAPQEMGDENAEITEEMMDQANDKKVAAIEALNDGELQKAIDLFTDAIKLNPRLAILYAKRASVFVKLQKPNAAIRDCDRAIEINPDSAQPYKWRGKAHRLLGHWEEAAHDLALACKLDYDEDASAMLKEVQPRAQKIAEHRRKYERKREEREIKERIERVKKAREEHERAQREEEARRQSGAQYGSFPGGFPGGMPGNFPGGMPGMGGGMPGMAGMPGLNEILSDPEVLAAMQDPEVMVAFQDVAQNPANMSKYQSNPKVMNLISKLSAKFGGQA

[12] = target: T12, HeLa cell extract proteins (Homo sapiens, UniProt P31949)
T12 construct: endogenous in cells; host or cells: HeLa cell extract
T12 sequence (P31949 1-105): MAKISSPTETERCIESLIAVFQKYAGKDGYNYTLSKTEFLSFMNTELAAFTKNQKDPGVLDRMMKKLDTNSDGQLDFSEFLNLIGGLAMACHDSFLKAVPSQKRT

[13] = HeLa, protein ST13 (HSC70-INTERACTING PROTEIN.)
[14] = HeLa, protein S100A11 (PROTEIN S100-A11.)

T10 sequence (P35270 whole entry): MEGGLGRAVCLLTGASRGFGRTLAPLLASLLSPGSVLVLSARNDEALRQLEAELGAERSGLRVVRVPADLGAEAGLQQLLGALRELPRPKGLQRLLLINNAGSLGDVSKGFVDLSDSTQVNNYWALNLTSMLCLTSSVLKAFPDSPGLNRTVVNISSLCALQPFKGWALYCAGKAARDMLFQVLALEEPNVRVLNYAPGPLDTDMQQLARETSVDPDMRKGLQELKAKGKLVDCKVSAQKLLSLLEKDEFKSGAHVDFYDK
T5 sequence (Q96P70 whole entry): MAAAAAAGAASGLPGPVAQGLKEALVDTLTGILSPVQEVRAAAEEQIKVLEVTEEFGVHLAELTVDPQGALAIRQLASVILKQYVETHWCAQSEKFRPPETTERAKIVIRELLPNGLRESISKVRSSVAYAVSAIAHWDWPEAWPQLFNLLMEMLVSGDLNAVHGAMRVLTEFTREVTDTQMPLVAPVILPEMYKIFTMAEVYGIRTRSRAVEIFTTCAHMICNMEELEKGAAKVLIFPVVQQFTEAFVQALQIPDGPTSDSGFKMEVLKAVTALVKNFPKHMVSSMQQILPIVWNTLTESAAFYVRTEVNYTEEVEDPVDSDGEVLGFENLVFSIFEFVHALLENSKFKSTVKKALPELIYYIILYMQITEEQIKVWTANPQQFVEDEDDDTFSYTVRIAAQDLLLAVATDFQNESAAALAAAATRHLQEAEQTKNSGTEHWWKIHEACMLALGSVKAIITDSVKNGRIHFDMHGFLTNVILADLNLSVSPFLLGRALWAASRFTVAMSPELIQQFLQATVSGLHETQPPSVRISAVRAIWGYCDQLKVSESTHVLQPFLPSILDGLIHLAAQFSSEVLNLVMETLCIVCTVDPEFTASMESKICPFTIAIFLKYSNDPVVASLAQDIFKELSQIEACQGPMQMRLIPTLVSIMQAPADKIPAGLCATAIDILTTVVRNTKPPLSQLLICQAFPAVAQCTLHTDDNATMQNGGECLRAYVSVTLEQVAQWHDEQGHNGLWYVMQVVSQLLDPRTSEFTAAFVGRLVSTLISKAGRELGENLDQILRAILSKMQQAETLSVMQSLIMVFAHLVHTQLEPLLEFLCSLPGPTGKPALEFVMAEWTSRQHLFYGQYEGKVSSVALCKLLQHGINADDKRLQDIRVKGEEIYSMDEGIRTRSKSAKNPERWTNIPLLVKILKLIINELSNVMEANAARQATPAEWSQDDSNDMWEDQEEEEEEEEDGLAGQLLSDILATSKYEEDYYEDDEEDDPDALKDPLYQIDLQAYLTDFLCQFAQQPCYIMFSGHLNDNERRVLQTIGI
T7 sequence (Q3ZCQ8 45-353): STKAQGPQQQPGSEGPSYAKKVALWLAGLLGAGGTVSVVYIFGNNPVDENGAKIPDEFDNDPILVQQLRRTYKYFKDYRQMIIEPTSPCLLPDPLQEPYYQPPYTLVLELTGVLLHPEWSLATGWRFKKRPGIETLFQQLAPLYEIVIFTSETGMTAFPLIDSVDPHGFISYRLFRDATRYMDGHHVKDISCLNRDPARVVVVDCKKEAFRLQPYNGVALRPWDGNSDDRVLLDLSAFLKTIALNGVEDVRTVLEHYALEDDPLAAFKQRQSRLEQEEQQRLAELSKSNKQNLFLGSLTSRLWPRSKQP
T2 sequence (P0DMV8 whole entry): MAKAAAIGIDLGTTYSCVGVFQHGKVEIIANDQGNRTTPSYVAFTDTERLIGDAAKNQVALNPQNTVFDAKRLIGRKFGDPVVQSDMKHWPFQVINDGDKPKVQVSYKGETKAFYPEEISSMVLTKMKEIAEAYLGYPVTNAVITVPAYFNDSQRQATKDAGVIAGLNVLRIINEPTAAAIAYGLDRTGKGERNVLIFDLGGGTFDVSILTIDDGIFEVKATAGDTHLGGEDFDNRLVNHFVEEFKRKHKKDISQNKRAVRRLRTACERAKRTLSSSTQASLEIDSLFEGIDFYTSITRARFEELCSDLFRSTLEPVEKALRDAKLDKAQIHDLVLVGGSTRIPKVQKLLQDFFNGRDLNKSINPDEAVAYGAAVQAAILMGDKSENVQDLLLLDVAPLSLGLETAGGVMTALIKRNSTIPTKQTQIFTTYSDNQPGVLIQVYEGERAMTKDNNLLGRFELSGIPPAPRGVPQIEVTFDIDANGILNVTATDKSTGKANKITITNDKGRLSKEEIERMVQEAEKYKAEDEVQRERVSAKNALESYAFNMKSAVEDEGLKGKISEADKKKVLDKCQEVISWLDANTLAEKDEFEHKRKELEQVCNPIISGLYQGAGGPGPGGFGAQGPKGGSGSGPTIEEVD
T4 sequence (Q16637 whole entry): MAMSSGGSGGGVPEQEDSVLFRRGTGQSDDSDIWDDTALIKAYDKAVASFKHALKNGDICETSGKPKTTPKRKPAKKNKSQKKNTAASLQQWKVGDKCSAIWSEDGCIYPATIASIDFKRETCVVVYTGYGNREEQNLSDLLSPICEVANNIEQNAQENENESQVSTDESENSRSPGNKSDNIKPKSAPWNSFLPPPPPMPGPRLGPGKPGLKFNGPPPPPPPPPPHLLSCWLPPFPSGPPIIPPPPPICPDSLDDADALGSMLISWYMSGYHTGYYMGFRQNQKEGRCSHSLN

Row | Structure (SMILES) | fold changes relative to vehicle control ([1]; HeLa, protein SERPINB1) | fold changes relative to vehicle control ([2]; HeLa, captured protein HSPA1A) | fold changes relative to vehicle control ([3]; HeLa, protein PSMB5) | fold changes relative to vehicle control ([4]; HeLa, protein SMN1) | fold changes relative to vehicle control ([5]; HeLa, protein IPO9) | fold changes relative to vehicle control ([6]; HeLa, protein RAB11B) | fold changes relative to vehicle control ([7]; HeLa, protein TIMM50) | fold changes relative to vehicle control ([8]; HeLa, protein S100A6) | fold changes relative to vehicle control ([9]; HeLa, protein PDIA6) | fold changes relative to vehicle control ([10]; HeLa, protein SPR) | fold changes relative to vehicle control ([11]; protein ST13, HeLa) | fold changes relative to vehicle control ([12]; HeLa, protein S100A11) | fold changes relative to vehicle control ([1]; protein SERPINB1, HeLa) | fold changes relative to vehicle control ([2]; protein HSPA1A, HeLa) | fold changes relative to vehicle control ([3]; protein PSMB5, HeLa) | fold changes relative to vehicle control ([4]; protein SMN1, HeLa) | fold changes relative to vehicle control ([5]; captured protein IPO9, HeLa) | fold changes relative to vehicle control ([6]; protein RAB11B, HeLa) | fold changes relative to vehicle control ([7]; captured protein TIMM50, HeLa) | fold changes relative to vehicle control ([8]; protein S100A6, HeLa) | further results
1 | Nc1nc2c(c(=O)[nH]1)N(C=O)C(CNc1ccc(C(=O)N[C@@H](CCC(=O)O)C(=O)O)cc1)CN2 (stereo partly drawn) [LEU, leucovorin] | 0.98 | 1.02 | 0.97 | 0.94 | 0.87 | 0.87 | 0.9 | 1.3 | 1.03 | 0.92 | 0.98 | 1.32 | – | – | – | – | – | – | – | – | –
2 | Nc1nc2[nH]cc(CCc3ccc(C(=O)N[C@@H](CCC(=O)O)C(=O)O)cc3)c2c(=O)[nH]1 [PTX, pemetrexed] | – | – | – | – | – | – | – | – | – | – | – | – | – | – | – | – | – | – | – | – | fold changes relative to vehicle control [1]: 1.06; fold changes relative to vehicle control [2]: 0.98; fold changes relative to vehicle control [3]: 1; fold changes relative to vehicle control [4]: 0.99; fold changes relative to vehicle control [5]: 0.91; fold changes relative to vehicle control [6]: 0.94; fold changes relative to vehicle control [7]: 0.87; fold changes relative to vehicle control [8]: 1.46; fold changes relative to vehicle control [9]: 1.12; fold changes relative to vehicle control [10]: 0.86; fold changes relative to vehicle control [11]: 1.12; fold changes relative to vehicle control [12]: 1.29
3 | CCCCCCOc1ccc(Cc2cnc(N)nc2N)cc1 [compound 1] | – | – | – | – | – | – | – | – | – | – | – | – | 1.07 | 0.97 | 1.11 | 1 | 0.89 | 1.02 | 1 | 1.13 | fold changes relative to vehicle control ([9]; protein PDIA6, HeLa): 1.09; fold changes relative to vehicle control ([10]; protein SPR, HeLa): 1.03; fold changes relative to vehicle control [11, 13]: 1.44 fold; fold changes relative to vehicle control [12, 14]: 1.66 fold
4 | CCCCCCOc1cccc(Cc2cnc(N)nc2N)c1 [compound 2] | – | – | – | – | – | – | – | – | – | – | – | – | 1.28 | 1.09 | 1.24 | 1.09 | 1.14 | 1.44 | 1.04 | 1.89 | fold changes relative to vehicle control ([9]; protein PDIA6, HeLa): 1.75; fold changes relative to vehicle control ([10]; protein SPR, HeLa): 1.21; fold changes relative to vehicle control [11, 13]: 2.63 fold; fold changes relative to vehicle control [12, 14]: 2.47 fold
5 | Nc1nc2cccc(-c3ccccc3)c2n1Cc1ccc(Cl)c(Cl)c1 [compound 3] | – | – | – | – | – | – | – | – | – | – | – | – | 0.98 | 1 | 0.95 | 0.98 | 1.07 | 0.97 | 0.99 | 0.95 | fold changes relative to vehicle control ([9]; protein PDIA6, HeLa): 0.89; fold changes relative to vehicle control ([10]; protein SPR, HeLa): 1.12; fold changes relative to vehicle control [11, 13]: 1.09 fold; fold changes relative to vehicle control [12, 14]: 1.08 fold
6 | NCCOCCOCC(=O)Nc1nc2ncc(CNc3ccc(C(=O)NC(CCC(=O)O)C(=O)O)cc3)nc2c(=O)[nH]1 (stereo not drawn) [compound 6] | 1.09 | 1 | 1.05 | 1.16 | 1 | 1.14 | 0.96 | 1.94 | 1.35 | 0.92 | 1.3 | 1.59 | – | – | – | – | – | – | – | – | –
7 | NCCCNc1ccc(C(=O)NC(CCC(=O)O)C(=O)O)cc1 (stereo not drawn) [compound 7] | 0.99 | 0.99 | 1 | 0.97 | 0.94 | 0.84 | 0.97 | 1.26 | 1 | 0.95 | 1.04 | 1.2 | – | – | – | – | – | – | – | – | –
